Measurements reported in PubChem BioAssay (NCI).
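Where inhibition never reached the appropriate level, the endpoint shown equals the highest concentration tested. Otherwise, values were interpolated linearly from a five-concentration, 48-hour dose response in 96-well plates. GI50 = concentration required for 50% inhibition of growth. TGI denotes the concentration required for complete inhibition of growth.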

Experiments:
Test in all cases: inhibition of tumour cell growth, NCI panel, 48 h
[1] = test system: CAKI-1 renal
[2] = test system: SN12C renal
[3] = test system: OVCAR-8 ovarian
[4] = test system: IGROV1 ovarian
[5] = test system: OVCAR-5 ovarian
[6] = test system: HCT-116 colon
[7] = test system: M14 melanoma
[8] = test system: SK-MEL-28 melanoma
[9] = test system: PC-3 prostate
[10] = test system: A549 NSCLC
[11] = test system: A498 renal
[12] = test system: KM12 colon
[13] = test system: NCI-H23 lung
[14] = test system: MCF7 breast
[15] = test system: NCI-H226 lung
[16] = test system: HT29 colon
[17] = test system: DU-145 prostate
[18] = test system: K-562 leukemia
[19] = test system: NCI/ADR-RES ovarian
[20] = test system: CCRF-CEM leukemia
[21] = test system: UO-31 renal
[22] = test system: MALME-3M melanoma
[23] = test system: OVCAR-4 ovarian
[24] = test system: MDA-MB-231 breast
[25] = test system: NCI-H460 lung
[26] = test system: SR leukemia
[27] = test system: RPMI-8226 leukemia
[28] = test system: 786-0 renal
[29] = test system: SF-268 CNS
[30] = test system: SNB-75 CNS
[31] = test system: MDA-N
[32] = test system: SW-620 colon
[33] = test system: HOP-92 NSCLC
[34] = test system: SF-539 CNS
[35] = test system: SNB-19 CNS
[36] = test system: LOX IMVI melanoma
[37] = test system: RXF 393 renal
[38] = test system: UACC-62 melanoma
[39] = test system: MDA-MB-435
[40] = test system: SK-MEL-5 melanoma
[41] = test system: EKVX NSCLC
[42] = test system: HCT-15 colon
[43] = test system: BT-549 breast
[44] = test system: SK-MEL-2 melanoma
[45] = test system: TK-10 renal
[46] = test system: SK-OV-3 ovarian
[47] = test system: OVCAR-3 ovarian
[48] = test system: HOP-62 NSCLC
[49] = test system: T-47D breast
[50] = test system: HL-60(TB) leukemia
[51] = test system: NCI-H522 lung
[52] = test system: MOLT-4 leukemia
[53] = test system: COLO 205 colon
[54] = test system: SF-295 CNS
[55] = test system: HCC-2998 colon
[56] = test system: UACC-257 melanoma
[57] = test system: U251 CNS
[58] = test system: ACHN renal
[59] = test system: HS 578T breast

CC1(C)[C@@H]2C[C@H]1[C@@H](Cc1cccc(C[C@H]3c4cc(-c5ccccn5)ncc4[C@H]4C[C@@H]3C4(C)C)c1)c1cc(-c3ccccn3)ncc12
TGI [1]: 17 µM
TGI [2]: > 29.9 µM
TGI [3]: > 43.9 µM
TGI [4]: > 53.3 µM
TGI [5]: > 100 µM
TGI [6]: > 47.6 µM
TGI [7]: > 100 µM
TGI [8]: > 100 µM
TGI [9]: > 100 µM
TGI [10]: > 100 µM
TGI [11]: > 93.2 µM
TGI [12]: > 100 µM
TGI [13]: > 77.4 µM
TGI [14]: > 100 µM
TGI [15]: > 91.2 µM
GI50 [16]: 12.5 µM
TGI [16]: > 100 µM
TGI [17]: > 24.7 µM
TGI [18]: > 49.1 µM
TGI [19]: 40.3 µM
TGI [20]: > 100 µM
TGI [21]: 8.82 µM
GI50 [22]: 1.78 µM
TGI [22]: 8.14 µM
TGI [23]: > 100 µM
TGI [24]: > 100 µM
TGI [25]: > 33.4 µM
GI50 [26]: > 100 µM
TGI [26]: > 100 µM
TGI [27]: > 26.4 µM
TGI [28]: > 47.6 µM
TGI [29]: > 100 µM
TGI [30]: > 100 µM
TGI [31]: > 100 µM
TGI [32]: > 61.4 µM
TGI [33]: 83.4 µM
TGI [34]: > 100 µM
TGI [35]: > 72.6 µM
TGI [36]: > 100 µM
TGI [37]: > 100 µM
TGI [38]: > 100 µM
TGI [39]: > 100 µM
TGI [40]: > 38 µM
TGI [41]: > 60 µM
TGI [42]: > 100 µM
TGI [43]: > 100 µM
TGI [44]: > 100 µM
TGI [45]: > 100 µM
TGI [46]: > 100 µM
TGI [47]: > 100 µM
TGI [48]: > 100 µM
TGI [49]: > 49.3 µM
TGI [50]: 4.33 µM
TGI [51]: > 70.8 µM
TGI [52]: > 100 µM
TGI [53]: > 65.5 µM
TGI [54]: > 100 µM
TGI [55]: > 100 µM
TGI [56]: > 100 µM
TGI [57]: > 100 µM
TGI [58]: > 66.6 µM

S=C1NC2=C(COc3ccccc32)C(c2ccc(Cl)cc2)N1 (centres undefined)
TGI [2]: 8.64 µM
TGI [3]: 41.7 µM
TGI [4]: 31.6 µM
TGI [5]: 30.7 µM
TGI [6]: 28.9 µM
TGI [7]: 34.5 µM
TGI [8]: 46.8 µM
TGI [9]: 26.2 µM
TGI [10]: 48.2 µM
TGI [11]: 39.1 µM
TGI [12]: 32.7 µM
TGI [13]: 45.9 µM
TGI [14]: 38.4 µM
TGI [15]: 36 µM
TGI [16]: 31.7 µM
TGI [17]: 35.7 µM
TGI [18]: 38.1 µM
TGI [19]: 41.3 µM
TGI [20]: 64.7 µM
TGI [21]: 35.1 µM
TGI [24]: 34 µM
TGI [27]: 22.4 µM
TGI [59]: 50.4 µM
TGI [28]: 34.5 µM
TGI [29]: 39.7 µM
TGI [30]: 38 µM
TGI [31]: 29.9 µM
TGI [32]: 78.8 µM
TGI [34]: 34.9 µM
TGI [35]: 45.3 µM
TGI [36]: 30.3 µM
TGI [37]: 37.4 µM
TGI [38]: 34.7 µM
TGI [39]: 58.2 µM
TGI [40]: 30.5 µM
TGI [41]: 34.2 µM
TGI [43]: 41.5 µM
TGI [44]: 29 µM
TGI [46]: 35.8 µM
TGI [47]: 28.7 µM
TGI [48]: 31 µM
TGI [49]: 45 µM
TGI [50]: 43.3 µM
TGI [52]: 38.7 µM
TGI [53]: 36.9 µM
TGI [54]: 29 µM
TGI [56]: 41.6 µM
TGI [58]: 43.6 µM
